Test results from PMC2808703 (Bioorganic & medicinal chemistry, 2009).
Where two headings read alike, the source gives them in different places.

Tests used:
[1] = tested on: Caco-2; settings: curated dataset; cited from earlier work
[2] = tested on: phospho-Akt in BxPC-3 pancreatic cancer cells; experiment: Cell inhibition of phospho-Akt in BxPC-3 pancreatic cancer cells; type: cell-based; settings: for IC50: Homo sapiens, BXPC-3, read-out: IC50 (Akt inhibition)
[3] = tested on: phospho-Akt in BxPC-3 pancreatic cancer cells; settings: hits experimentally tested and confirmed active; cited from earlier work

IC50 [2]	SMILES	Caco-2 permeability, experimental [1]	other results
–	C[C@H]1[C@H](OC(=O)CCC(=O)O)O[C@@H]2O[C@@]3(C)CC[C@H]4[C@H](C)CC[C@@H]1[C@@]24OO3 [sodium artesunate]	3.98 ×10⁻⁶ cm/s	–
10 µM	CCCCCCCCCC(=O)Nc1ccc(S(=O)(=O)Nc2nncs2)cc1 [Compound 13]	–	–
–	COc1cccc2c1C(=O)c1c(O)c3c(c(O)c1C2=O)C[C@@](O)(C(=O)CO)C[C@@H]3O[C@H]1C[C@H](N)[C@H](O)[C@H](C)O1 [doxorubicin]	0.16 ×10⁻⁶ cm/s	–
> 50 µM	COCCOCCOCC(=O)Nc1ccc(S(=O)(=O)Nc2nncs2)cc1 [Compound 12]	–	–
–	CC(C)Cc1ccc(C(C)C(=O)O)cc1 (stereo not shown) [ibuprofen]	52.5 ×10⁻⁶ cm/s	–
–	CO/N=C(\C(=O)N[C@@H]1C(=O)N2C(C(=O)O)=C(CSc3nc(=O)c(O)nn3C)CS[C@H]12)c1csc(N)n1 [cerftriaxone]	0.13 ×10⁻⁶ cm/s	–
> 50 µM	CC(=O)Nc1ccc(S(=O)(=O)Nc2nncs2)cc1 [Compound 11]	–	IC50 (Akt inhibition) ([2]; BxPC-3 cells, phospho-Akt): no activity
–	Cc1nnc(NS(=O)(=O)c2ccc(NS(=O)(=O)c3ccc4ccccc4c3)cc2)s1 [Compound 9]	–	IC50 [3]: 20 µM
–	CN1CCN(CC(=O)N2c3ccccc3C(=O)Nc3cccnc32)CC1 [pirenzepine]	0.437 ×10⁻⁶ cm/s	–
